The NIST ThermoML archive (doi:10.1016/j.jct.2014.02.016)

Assay: refractive index (other wavelength) (dimensionless)
Details: 100 kPa, Liquid, Wavelength=632.8 nm, Angle minimization by sell rotation

COC(=O)OC [dimethyl carbonate]
Details	refractive index
293.16 K	1.3678
294.29 K	1.3673
295.28 K	1.3669
296.28 K	1.3663
297.28 K	1.3659
298.3 K	1.3654
300.3 K	1.3644
302.3 K	1.3635
303.4 K	1.363

CCCCCCCCCCCCC [tridecane]
Details	refractive index
294.14 K	1.4241
295.15 K	1.4236
296.18 K	1.4232
297.23 K	1.4227
299.35 K	1.4218
300.44 K	1.4213
302.44 K	1.4204
303.67 K	1.4199
304.45 K	1.4196

CCCCCCCCCCC [undecane]
Details	refractive index
293.4 K	1.4162
294.3 K	1.4157
295.27 K	1.4152
296.26 K	1.4148
297.25 K	1.4144
298.27 K	1.4139
299.34 K	1.4134
300.31 K	1.413
301.27 K	1.4126
